These results are taken from PMC9076611, “Ataluren binds to multiple protein synthesis apparatus sites and competitively inhibits release factor-dependent termination” (Nature Communications, 2022).

For assay [1], the target named is T1, eRF1 (Saccharomyces cerevisiae, UniProt P12385).
T1 construct: gene SUP45; Full-length S. cerevisiae eRF1
The assay is described as follows: photoaffinity labeling with [3H]-AzAt, saturation curve on isolated eRF1 (SDS-PAGE gel slice radioactivity). In kind it is binding. An excerpt: photoaffinity labeling with [3H]-AzAt, saturation curve on isolated eRF1 (SDS-PAGE gel slice radioactivity) on eRF1 | Photoincorporation into isolated eRF1 as a function of AzAt concentration results in a simple hyperbolic saturation curve

The target of assay [2] is T1, eRF1. Briefly: competition with [3H]-AzAt photoaffinity labeling of isolated eRF1 ([…] ataluren vs […] AzAt). In kind it is binding.

T1 sequence (P12385 whole entry): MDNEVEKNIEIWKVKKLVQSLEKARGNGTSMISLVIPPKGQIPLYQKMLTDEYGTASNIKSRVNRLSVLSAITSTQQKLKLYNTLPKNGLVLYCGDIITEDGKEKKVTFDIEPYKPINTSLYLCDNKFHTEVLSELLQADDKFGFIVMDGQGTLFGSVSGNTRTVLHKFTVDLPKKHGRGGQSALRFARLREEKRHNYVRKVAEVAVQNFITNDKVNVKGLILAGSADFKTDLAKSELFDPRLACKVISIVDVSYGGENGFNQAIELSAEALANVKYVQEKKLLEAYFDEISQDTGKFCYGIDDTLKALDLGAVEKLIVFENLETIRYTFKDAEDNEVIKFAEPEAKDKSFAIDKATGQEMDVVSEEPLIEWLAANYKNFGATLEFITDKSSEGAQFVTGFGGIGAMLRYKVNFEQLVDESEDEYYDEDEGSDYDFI

The EC50 is the concentration needed to bring the measured effect to its halfway point. With `[N-]=[N+]=Nc1ccc(-c2nc(-c3cccc(C(=O)O)c3)no2)cc1` [AzAt, 3-(5-(4-azidophenyl)-1,2,4-oxadiazol-3-yl) benzoic acid], the EC50 in assay [1] turned out to be 110 ± 20 µM. As for `O=C(O)c1cccc(-c2noc(-c3ccccc3F)n2)c1` [ataluren], the “competition with [3H]-AzAt photoaffinity labeling of isolated eRF1 (1000 μM atal)” value in assay [2] is “both ataluren and GJ072, an ataluren-like TRID, substantially inhibit AzAt photoincorporation into isolated eRF1”.
